Source: patent publication US9751887B2, “Imidazo[1,2-b]pyridazine derivatives as kinase inhibitors” (Daiichi Sankyo Company, Limited, priority 2012, dated 2017)
Structures can show the parent of a compound that is named as a salt. Where two headings read alike, the source gives them in different places.

How the values were obtained:
ROS1 [1] = target: T1, ROS1 (Homo sapiens, UniProt P08922); test: ROS1 kinase inhibitory activity evaluation (mobility shift, EZ Reader II); type: biochemical; conditions: ROS1 25 pg/μL, FL-Peptide 22 substrate, three separate measurements
T1 construct: purchased Carna Biosciences 08-163
T1 sequence (P08922 28-2347): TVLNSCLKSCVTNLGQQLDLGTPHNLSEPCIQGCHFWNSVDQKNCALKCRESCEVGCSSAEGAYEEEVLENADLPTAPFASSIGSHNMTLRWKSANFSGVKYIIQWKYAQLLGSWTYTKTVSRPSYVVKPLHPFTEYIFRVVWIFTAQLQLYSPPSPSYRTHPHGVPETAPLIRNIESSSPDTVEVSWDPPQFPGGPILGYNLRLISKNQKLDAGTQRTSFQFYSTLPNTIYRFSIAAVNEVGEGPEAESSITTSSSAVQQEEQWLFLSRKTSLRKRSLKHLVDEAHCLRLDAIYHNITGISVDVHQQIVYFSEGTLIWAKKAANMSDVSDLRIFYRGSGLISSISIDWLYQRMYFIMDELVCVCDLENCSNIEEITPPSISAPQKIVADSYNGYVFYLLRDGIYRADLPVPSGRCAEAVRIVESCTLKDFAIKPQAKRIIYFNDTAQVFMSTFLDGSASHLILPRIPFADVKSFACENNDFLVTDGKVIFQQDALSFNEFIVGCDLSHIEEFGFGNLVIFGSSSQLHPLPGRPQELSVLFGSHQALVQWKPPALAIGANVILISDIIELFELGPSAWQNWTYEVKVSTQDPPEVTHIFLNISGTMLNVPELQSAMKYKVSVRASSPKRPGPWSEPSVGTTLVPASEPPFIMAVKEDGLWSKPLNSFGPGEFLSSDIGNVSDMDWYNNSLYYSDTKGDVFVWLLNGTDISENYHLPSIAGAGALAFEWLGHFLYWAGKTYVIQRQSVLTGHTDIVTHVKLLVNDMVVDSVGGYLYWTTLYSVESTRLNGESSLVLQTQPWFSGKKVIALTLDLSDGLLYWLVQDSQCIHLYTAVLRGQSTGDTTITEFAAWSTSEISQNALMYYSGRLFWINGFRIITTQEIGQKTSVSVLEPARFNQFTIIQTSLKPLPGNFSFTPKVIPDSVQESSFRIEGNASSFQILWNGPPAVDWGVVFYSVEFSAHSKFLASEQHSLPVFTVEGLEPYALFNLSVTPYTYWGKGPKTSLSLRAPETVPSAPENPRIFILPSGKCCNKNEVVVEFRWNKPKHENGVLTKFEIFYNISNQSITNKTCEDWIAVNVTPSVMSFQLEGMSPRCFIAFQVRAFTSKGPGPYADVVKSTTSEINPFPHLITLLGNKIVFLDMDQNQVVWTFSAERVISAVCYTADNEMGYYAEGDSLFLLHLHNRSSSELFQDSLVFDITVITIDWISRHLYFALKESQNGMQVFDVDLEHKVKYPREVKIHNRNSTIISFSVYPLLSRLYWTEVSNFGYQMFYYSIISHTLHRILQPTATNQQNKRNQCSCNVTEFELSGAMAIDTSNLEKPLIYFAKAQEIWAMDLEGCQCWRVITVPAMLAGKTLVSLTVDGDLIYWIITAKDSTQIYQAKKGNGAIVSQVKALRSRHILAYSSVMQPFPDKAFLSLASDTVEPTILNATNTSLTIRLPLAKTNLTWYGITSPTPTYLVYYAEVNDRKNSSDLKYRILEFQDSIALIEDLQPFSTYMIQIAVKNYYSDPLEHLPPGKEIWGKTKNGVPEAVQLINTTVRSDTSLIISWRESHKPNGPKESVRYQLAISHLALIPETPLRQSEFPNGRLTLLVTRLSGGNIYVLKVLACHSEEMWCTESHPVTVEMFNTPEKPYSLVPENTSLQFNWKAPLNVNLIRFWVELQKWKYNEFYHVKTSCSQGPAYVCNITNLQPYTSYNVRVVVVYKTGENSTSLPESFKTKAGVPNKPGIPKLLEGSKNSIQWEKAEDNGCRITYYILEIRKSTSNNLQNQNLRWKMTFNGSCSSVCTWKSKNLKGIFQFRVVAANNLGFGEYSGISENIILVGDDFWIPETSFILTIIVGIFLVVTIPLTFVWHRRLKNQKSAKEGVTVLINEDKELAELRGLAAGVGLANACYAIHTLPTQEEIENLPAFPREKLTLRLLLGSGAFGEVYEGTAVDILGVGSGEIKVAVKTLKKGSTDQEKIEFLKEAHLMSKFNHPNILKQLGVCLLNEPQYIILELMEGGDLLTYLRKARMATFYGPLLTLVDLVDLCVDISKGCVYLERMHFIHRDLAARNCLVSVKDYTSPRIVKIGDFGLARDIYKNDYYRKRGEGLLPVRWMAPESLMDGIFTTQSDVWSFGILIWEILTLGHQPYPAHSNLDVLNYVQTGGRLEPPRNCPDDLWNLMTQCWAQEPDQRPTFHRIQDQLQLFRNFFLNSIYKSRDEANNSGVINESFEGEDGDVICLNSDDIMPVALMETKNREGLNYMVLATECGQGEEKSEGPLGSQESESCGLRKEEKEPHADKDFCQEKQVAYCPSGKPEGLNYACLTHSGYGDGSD
Description: Next, a substrate reaction solution was prepared. […] Then, the reaction stop solution was added thereto at a concentration of 40 μL/well. Substrate phosphorylation intensity was measured using EZ Reader II (Caliper Life Sciences).

ROS1 [2] = target: T1, ROS1; test: ROS1 autophosphorylation inhibitory activity evaluation (ADP-Glo); type: biochemical; conditions: 200 nM inactive ROS1, ATP 1 mM, 25° C. 1.5 hours, ADP generated, four separate measurements
Description: Fifty mM HEPES (pH 7.5), 10 mM MgCl2, 0.01% Brij-58, and 2.5 mM DTT were mixed to prepare an enzymatic reaction solution. […] ATP (final concentration: 1 mM) was further added thereto at a concentration of 2.5 μL/well. The resulting plate was left standing at 25° C. for 1.5 hours to cause enzymatic reaction. After the completion of enzymatic reaction, ADP-Glo Reagent-1 (Promega, V9103) was added thereto at a concentration of 2.5 μL/well, and the plate was left standing at room temperature for 60 minutes. Then, ADP-Glo Reagent-2 (Promega) was added thereto at a concentration of 5 μL/well, and the plate was left standing at room temperature for 60 minutes. The amount of ADP generated by the autophosphorylation of ROS1 was measured using EnVision (PerkinElmer Japan). The amount of ADP generated in four separate measurements was defined as the autophosphorylation intensity of ROS1. IC50 values were calculated by curve fitting using GraphPad Prism version 4 (GraphPad software).

[3] = test system: HCC78 cells having ROS1 fusion gene; test: HCC78 cell growth assay (CellTiter-Glo); type: cell-based; conditions: Homo sapiens, 72 hours culture, 2% FBS medium, luminescence, four separate measurements, read-out: growth inhibitory effect on HCC78 cells having ROS1 fusion gene IC50
Description: Each compound of the present invention was assayed for its cell growth inhibitory effect using HCC78 cells having ROS1 fusion gene.
The suspension was dispensed at a concentration of 100 μL/well to a 96-well culture plate for cell culture (SUMITOMO BAKELITE, Cat No MS-0096S) (hereinafter, referred to as an assay plate). […] In this context, the final concentration of DMSO was set to 0.4%. Then, the cells were cultured for 72 hours in a CO2 incubator.
CellTiter-Glo Luminescent Cell Viability Assay reagent (Promega, Cat No G7571) was dispensed at a concentration of 100 μL/well to the assay plate. The contents in each well were reacted at room temperature for 10 minutes while stirred using a plate mixer. […] The luminescence intensity of each well was measured using EnVision. The luminescence intensity of each well obtained in four separate measurements was defined as the number of cells. IC50 values were calculated by curve fitting using GraphPad Prism version 4.

Structure (SMILES)	IC50 (ROS1 [1]) [nM]	IC50 (ROS1 [2]) [nM]	IC50 ([3]; HCC78, 72 h) [nM]	IC50 ([3]; HCC78) [nM]
CC(Oc1ccc2ncc(-c3ccc(N4C[C@@H](N)CC4=O)cc3)n2n1)c1cc(F)ccc1F (stereo partly drawn) [Example 104, (4S)-4-Amino-1-[4-[6-[1-(2,5-difluorophenyl)ethoxy]imidazo[1,2-b]pyridazin-3-yl]phenyl]pyrrolidin-2-one]	< 1	< 20	20 to 100	
C[C@@H](N)COc1cccc(-c2cnc3ccc(N[C@H](C)c4cccc(F)c4)nn23)c1 [Example 60, 3-[3-[(2R)-2-Aminopropoxy]phenyl]-N-[(1R)-1-(3-fluorophenyl)ethyl]imidazo[1,2-b]pyridazin-6-amine]	1 to 10	< 20	20 to 100	
C[C@@H](Nc1ccc2ncc(-c3ccc(N4C[C@@H](N)CC4=O)cc3F)n2n1)c1cccc(F)c1 [Example 93, (4S)-4-Amino-1-[3-fluoro-4-[6-[[(1R)-1-(3-fluorophenyl)ethyl]amino]imidazo[1,2-b]pyridazin-3-yl]phenyl]pyrrolidin-2-one]	< 1	< 20	< 20	
CC1(N)CN(c2ccc(-c3cnc4ccc(OCc5cccc(F)c5)nn34)cc2)C(=O)C12CC2 (stereo not shown) [Example 77, 7-Amino-5-[4-[6-[(3-fluorophenyl)methoxy]imidazo[1,2-b]pyridazin-3-yl]phenyl]-7-methyl-5-azaspiro[2.4]heptan-4-one]	< 1	20 to 100	20 to 100	
C[C@@H](Nc1ccc2ncc(-c3ccc(OCCNC4CC4)cc3)n2n1)c1cccc(F)c1 [Example 37, 3-[4-[2-(Cyclopropylamino)ethoxy]phenyl]-N-[(1R)-1-(3-fluorophenyl)ethyl]imidazo[1,2-b]pyridazin-6-amine]	< 1	20 to 100	20 to 100	
C[C@@H](Nc1ccc2ncc(-c3ccc(OCCCN(C)C)cc3)n2n1)c1cccc(F)c1 [Example 70, 3-[4-[3-(Dimethylamino)propoxy]phenyl]-N-[(1R)-1-(3-fluorophenyl)ethyl]imidazo[1,2-b]pyridazin-6-amine]	< 1	< 20	20 to 100	
CC(Oc1ccc2ncc(-c3ccc(N4C[C@@H](N)CC4=O)cc3)n2n1)c1cncc(Cl)c1 (stereo partly shown) [Example 112]	1 to 10	< 20	20 to 100	
CN(Cc1cccc(F)c1)c1ccc2ncc(-c3ccc(OC[C@@H]4CCCN4)cc3)n2n1 [Example 10, N-[(3-Fluorophenyl)methyl]-N-methyl-3-[4-[[(2S)-pyrrolidin-2-yl]methoxy]phenyl]imidazo[1,2-b]pyridazin-6-amine]	1 to 10	20 to 100	100 to 600	
N#Cc1cccc(COc2ccc3ncc(-c4ccc(N5C[C@@H](N)CC5=O)cc4)n3n2)c1 [Example 101, 3-[[3-[4-[(4S)-4-Amino-2-oxopyrrolidin-1-yl]phenyl]imidazo[1,2-b]pyridazin-6-yl]oxymethyl]benzonitrile]	1 to 10	20 to 100	100 to 600	
C[C@@H](Nc1ccc2ncc(-c3ccc(OC[C@@H]4CCCN4)cc3)n2n1)c1ccccc1 [Example 19, N-[(1R)-1-Phenylethyl]-3-[4-[[(2S)-pyrrolidin-2-yl]methoxy]phenyl]imidazo[1,2-b]pyridazin-6-amine]	1 to 10	< 20	100 to 600	
Fc1cccc(COc2ccc3ncc(-c4ccc(OC[C@@H]5CCCN5)cc4)n3n2)c1 [Example 12, 6-[(3-Fluorophenyl)methoxy]-3-[4-[[(2S)-pyrrolidin-2-yl]methoxy]phenyl]imidazo[1,2-b]pyridazine]	1 to 10	20 to 100	100 to 600	
C[C@@H](Nc1ccc2ncc(-c3ccc(OC4CCCC4N)cc3)n2n1)c1cccc(F)c1 (single isomer, unassigned) [Example 32]	< 1	< 20		
c1ccc(CNc2ccc3ncc(-c4ccc(OCC[C@@H]5CCCN5)cc4)n3n2)cc1 [Example 6, N-Benzyl-3-[4-[2-[(2S)-pyrrolidin-2-yl]ethoxy]phenyl]imidazo[1,2-b]pyridazin-6-amine]	1 to 10	20 to 100	20 to 100	
C[C@@H](Nc1ccc2ncc(-c3ccc(O[C@@H]4CCC[C@@H]4N)cc3)n2n1)c1cccc(F)c1 [Example 36, 3-[4-[(1R,2S)-2-Aminocyclopentoxy]phenyl]-N-[(1R)-1-(3-fluorophenyl)ethyl]imidazo[1,2-b]pyridazin-6-amine]	< 1	< 20	100 to 600	
C[C@@H](Nc1ccc2ncc(-c3ccc(OCCNCCO)cc3)n2n1)c1cccc(F)c1 [Example 42, 2-[2-[4-[6-[[(1R)-1-(3-Fluorophenyl)ethyl]amino]imidazo[1,2-b]pyridazin-3-yl]phenoxy]ethylamino]ethanol]	< 1	< 20	< 20	
C[C@@H](Nc1ccc2ncc(-c3ccc(OC[C@@H]4CCN4)c(F)c3)n2n1)c1cccc(F)c1 [Example 44, 3-[4-[[(2S)-Azetidin-2-yl]methoxy]-3-fluoro-phenyl]-N-[(1R)-1-(3-fluorophenyl)ethyl]imidazo[1,2-b]pyridazin-6-amine]	< 1	< 20	< 20	
C[C@@H](Nc1ccc2ncc(-c3ccc(OC[C@@H]4CC(F)CN4)cc3)n2n1)c1cccc(F)c1 (stereo in doubt) [Example 33, N-[(1R)-1-(3-Fluorophenyl)ethyl]-3-[4-[[(2S,4S)-4-fluoropyrrolidin-2-yl]methoxy]phenyl]imidazo[1,2-b]pyridazin-6-amine]	< 1	< 20	20 to 100	
C[C@@H](Oc1ccc2ncc(-c3ccc(OC[C@@H]4CCCN4)cc3)n2n1)c1cccc(F)c1 [Example 16, 6-[(1R)-1-(3-Fluorophenyl)ethoxy]-3-[4-[[(2S)-pyrrolidin-2-yl]methoxy]phenyl]imidazo[1,2-b]pyridazine]	< 1		20 to 100	
CN(Cc1cc(F)ccc1F)c1ccc2ncc(-c3ccc(N4C[C@@H](N)CC4=O)cc3)n2n1 [Example 97, (4S)-4-Amino-1-[4-[6-[(2,5-difluorophenyl)methyl-methylamino]imidazo[1,2-b]pyridazin-3-yl]phenyl]pyrrolidin-2-one]	1 to 10	20 to 100	< 20	
CN(Cc1cncc(F)c1)c1ccc2ncc(-c3ccc(N4CC(C)(N)CC4=O)cc3)n2n1 (single isomer, unassigned) [Example 125, 4-Amino-1-[4-[6-[(5-fluoro-3-pyridyl)methyl-methylamino]imidazo[1,2-b]pyridazin-3-yl]phenyl]-4-methylpyrrolidin-2-one]		20 to 100		
CN(Cc1cccc(F)c1)c1ccc2ncc(-c3ccc(N4CC(C)(N)CC4=O)cc3)n2n1 (single isomer, unassigned) [Example 86, 4-Amino-1-[4-[6-[(3-fluorophenyl)methyl-methylamino]imidazo[1,2-b]pyridazin-3-yl]phenyl]-4-methylpyrrolidin-2-one]		< 20		
CN(Cc1cccc(Cl)c1)c1ccc2ncc(-c3ccc(N4CC(N)CC4=O)cc3)n2n1 (stereo not shown) [Example 96, 4-Amino-1-[4-[6-[(3-chlorophenyl)methyl-methylamino]imidazo[1,2-b]pyridazin-3-yl]phenyl]pyrrolidin-2-one]				100 to 600
CC(N)COc1ccc(-c2cnc3ccc(N[C@H](C)c4cccc(F)c4)nn23)cc1 (stereo partly drawn) [Example 35, 3-[4-(2-Aminopropoxy)phenyl]-N-[(1R)-1-(3-fluorophenyl)ethyl]imidazo[1,2-b]pyridazin-6-amine]			< 20	
CC(Oc1ccc2ncc(-c3ccc(N4C[C@@H](N)CC4=O)cc3)n2n1)c1cc(F)cnc1F (stereo partly drawn) [Example 134, (4S)-4-Amino-1-[4-[6-[(1-(2,5-difluoro-3-pyridyl)ethoxy]imidazo[1,2-b]pyridazin-3-yl]phenyl]pyrrolidin-2-one hydrochloride]	1 to 10			
C[C@@H](Oc1ccc2ncc(-c3ccc(N4C[C@@H](N)CC4=O)cc3)n2n1)c1cccc(F)c1 [Example 133, (4S)-4-Amino-1-[4-[6-[(1R)-1-(3-fluorophenyl)ethoxy]imidazo[1,2-b]pyridazin-3-yl]phenyl]pyrrolidin-2-one hydrochloride]		< 20		
